Results published in ChEMBL document CHEMBL6109134, “Discovery of AMG 193, an MTA-Cooperative PRMT5 Inhibitor for the Treatment of MTAP-Deleted Cancers” (J Med Chem, 2025).
Converted amounts (≈) assume the structure as drawn. The source made the active and inactive calls. The rule behind the calls is not given here.

Tests used:
HCT-116 [1] = assay: Antiproliferative activity against MTAP-deleted human HCT-116 cells assessed as effect on cell viability incubated for 6 days by Celltiter-Glo luminescent cell viability assay; format: functional, cell-based; conditions: HCT-116, 144 h
HCT-116 [2] = assay: Antiproliferative activity against human HCT-116 cells harboring wildtype MTAP assessed as effect on cell viability incubated for 6 days by Celltiter-Glo luminescent cell viability assay; format: functional, cell-based; conditions: HCT-116, 144 h
BXPC-3 [3] = assay: Antiproliferative activity against human BXPC-3 cells assessed as effect on cell viability; format: functional, cell-based
DOHH-2 = assay: Antiproliferative activity against human DOHH-2 cells assessed as effect on cell viability; format: functional, cell-based
[4] = biological target: Voltage-gated inwardly rectifying potassium channel KCNH2 (Homo sapiens, UniProt Q12809); assay: Inhibition of human ERG by QPatch clamp method
[5] = Solubility of compound in SIF at pH 6.8
Cytochrome P450 3A4 = Cytochrome P450 3A4 (Homo sapiens, UniProt P08684); assay: Inhibition of CYP3A4 (unknown origin)
Cytochrome P450 2C9 = Cytochrome P450 2C9 (Homo sapiens, UniProt P11712); assay: Inhibition of CYP2C9 (unknown origin)
[6] = Metabolic stability in human hepatocytes assessed as intrinsic clearance measured per 10^6 cells; format: ADME, cell-based, Hepatocyte; conditions: read-out: CLH
[7] = Metabolic stability in dog hepatocytes assessed as intrinsic clearance measured per 10^6 cells; format: ADME, cell-based, Canis lupus familiaris, Hepatocyte; conditions: read-out: CLH
[8] = Protein binding in human plasma assessed as unbound fraction by ultracentrifugation
[9] = Clearance in Sprague-Dawley rat at 0.5 mg/kg, iv; conditions: in vivo
[10] = biological target: Protein arginine N-methyltransferase 5 (Homo sapiens) (UniProt O14744); assay: Binding affinity to PRMT5 (unknown origin) assessed as occupancy in presence of MTA by SPR analysis relative to control
[11] = biological target: Protein arginine N-methyltransferase 5 (Homo sapiens) (UniProt O14744); assay: Selectivity ratio of dissociation rate for binding affinity to PRMT5 (unknown origin) in presence of SAM to dissociation rate for binding affinity to PRMT5 (unknown origin) in presence of MTA
[12] = Toxicity in female rat up to 25 mg/kg, po administered as single dose for 14 days; format: organism-based; conditions: in vivo, 336 h, time 14 day
[13] = Unbound CSF-to-plasma concentration ratio in male Sprague-Dawley rat at 25 mg/kg, po administered as single dose; format: ADME, organism-based
[14] = Unbound brain-to-plasma concentration ratio in male Sprague-Dawley rat at 75 mg/kg, po administered as single dose; format: ADME, organism-based; conditions: read-out: K(p,uu,brain)
[15] = Unbound brain-to-plasma concentration ratio in female Sprague-Dawley rat at 75 mg/kg, po administered as single dose; format: ADME, organism-based; conditions: read-out: K(p,uu,brain)
[16] = biological target: PRMT5/MEP50 complex (Homo sapiens) (UniProt O14744+Q9BQA1); assay: Inhibition of human PRMT5/MEP50 at 10 uM relative to control; format: protein-complex assay
[17] = biological target: Protein arginine N-methyltransferase 5 (Homo sapiens) (UniProt O14744); assay: In vivo inhibition of PRMT5 in athymic nude mouse xenografted with human HCT-116 cells harboring wildtype MTAP assessed as decrease in SDMA level in tumor at 3 mg/kg, po administered once daily for 4 days and measured 4 hrs post last dose by ELISA relative to control; format: functional, organism-based; conditions: time 4.0 day
[18] = biological target: Protein arginine N-methyltransferase 5 (Homo sapiens) (UniProt O14744); assay: In vivo inhibition of PRMT5 in athymic nude mouse xenografted with human HCT-116 cells harboring wildtype MTAP assessed as decrease in SDMA level in tumor at 100 mg/kg, po administered once daily for 4 days and measured 4 hrs post last dose by ELISA relative to control; format: functional, organism-based; conditions: time 4.0 day
HCT-116 [19] = assay: Antitumor activity against human HCT-116 cells harboring wildtype MTAP xenografted in female athymic nude mouse model assessed as tumor growth inhibition at 3 to 100 mg/kg, po administered once daily for 14 days; format: functional, organism-based; conditions: dose 3-100 mg/kg, time 14.0 day
HCT-116 [20] = assay: Antitumor activity against MTAP-deleted human HCT-116 cells xenografted in female athymic nude mouse model assessed as tumor growth inhibition at 3 mg/kg, po administered once daily for 14 days relative to control; format: functional; conditions: HCT-116, 336 h, time 14 day, read-out: TGI
HCT-116 [21] = assay: Antitumor activity against MTAP-deleted human HCT-116 cells xenografted in female athymic nude mouse model assessed as tumor growth inhibition at 10 mg/kg, po administered once daily for 14 days relative to control; format: functional; conditions: HCT-116, 336 h, time 14 day, read-out: TGI
BXPC-3 [22] = assay: Antitumor activity against MTAP-deleted human BXPC-3 cells xenografted in athymic nude mouse model assessed as tumor growth inhibition at 10 mg/kg, po administered once daily for 26 days and measured 24 hrs post last dose relative to control; format: functional; conditions: BXPC-3, 648 h, time 27 day, read-out: TGI
BXPC-3 [23] = assay: Antitumor activity against MTAP-deleted human BXPC-3 cells xenografted in athymic nude mouse model assessed as tumor growth inhibition at 30 mg/kg, po administered once daily for 26 days and measured 24 hrs post last dose relative to control; format: functional; conditions: BXPC-3, 648 h, time 27 day, read-out: TGI
BXPC-3 [24] = assay: Antitumor activity against MTAP-deleted human BXPC-3 cells xenografted in athymic nude mouse model assessed as tumor growth inhibition at 100 mg/kg, po administered once daily for 26 days and measured 24 hrs post last dose relative to control; format: functional; conditions: BXPC-3, 648 h, time 27 day, read-out: TGI
[25] = Drug uptake in plasma of athymic nude mouse xenografted with MTAP-deleted human BXPC-3 cells at 10 to 100 mg/kg, po administered once daily for 26 days and measured 24 hrs post last dose by LC-SRM/MS analysis; format: ADME, organism-based; conditions: in vivo, 648 h, dose 10-100 mg/kg, time 27 day
[26] = Antitumor activity against MTAP-deleted human U-87 MG cells xenografted in female athymic nude mouse model assessed as tumor growth inhibition at 10 mg/kg, po administered once daily for 14 days and measured 24 hrs post last dose relative to control; format: functional, U-87MG ATCC; conditions: 360 h, time 15 day, read-out: TGI
[27] = Antitumor activity against MTAP-deleted human U-87 MG cells xenografted in female athymic nude mouse model assessed as tumor growth inhibition at 30 mg/kg, po administered once daily for 14 days and measured 24 hrs post last dose relative to control; format: functional, U-87MG ATCC; conditions: 360 h, time 15 day, read-out: TGI
[28] = biological target: Protein arginine N-methyltransferase 5 (Homo sapiens) (UniProt O14744); assay: In vivo inhibition of PRMT5 in female athymic nude mouse xenografted with MTAP-deleted human U-87 MG cells assessed as decrease in SDMA level in tumor at 10 mg/kg, po administered once daily for 14 days and measured 2 to 8 hrs post last dose by ELISA relative to control; format: functional, organism-based; conditions: time 338-344 hrs
[29] = biological target: Protein arginine N-methyltransferase 5 (Homo sapiens) (UniProt O14744); assay: In vivo inhibition of PRMT5 in female athymic nude mouse xenografted with MTAP-deleted human U-87 MG cells assessed as decrease in SDMA level in tumor at 30 mg/kg, po administered once daily for 14 days and measured 2 to 8 hrs post last dose by ELISA relative to control; format: functional, organism-based; conditions: time 338-344 hrs
[30] = Toxicity in athymic nude mouse xenografted with MTAP-deleted human BXPC-3 cells assessed as effect on body weight at 10 to 100 mg/kg, po administered once daily for 26 days; format: organism-based; conditions: in vivo, 624 h, dose 10-100 mg/kg, time 26 day
PRMT5/MEP50 complex = PRMT5/MEP50 complex (Homo sapiens, UniProt O14744)
Description: Inhibition of PRMT5/MEP50 (unknown origin) preincubated with compound for 24 hrs in presence of SAM and MTA followed by Histone H4 (1-21)-Lys(Biotin) peptide addition and measured after 2 hrs by MTase-Glo reagent based assay

in vivo = conditions: Sprague-Dawley, rat, po, 2 mg/kg, pH 2
CYP3A4 = CYP3A4 (Homo sapiens, UniProt P08684); assay: in vitro; conditions: human liver microsomes, probe midazolam
Chain of CYP3A4 (P08684 whole entry): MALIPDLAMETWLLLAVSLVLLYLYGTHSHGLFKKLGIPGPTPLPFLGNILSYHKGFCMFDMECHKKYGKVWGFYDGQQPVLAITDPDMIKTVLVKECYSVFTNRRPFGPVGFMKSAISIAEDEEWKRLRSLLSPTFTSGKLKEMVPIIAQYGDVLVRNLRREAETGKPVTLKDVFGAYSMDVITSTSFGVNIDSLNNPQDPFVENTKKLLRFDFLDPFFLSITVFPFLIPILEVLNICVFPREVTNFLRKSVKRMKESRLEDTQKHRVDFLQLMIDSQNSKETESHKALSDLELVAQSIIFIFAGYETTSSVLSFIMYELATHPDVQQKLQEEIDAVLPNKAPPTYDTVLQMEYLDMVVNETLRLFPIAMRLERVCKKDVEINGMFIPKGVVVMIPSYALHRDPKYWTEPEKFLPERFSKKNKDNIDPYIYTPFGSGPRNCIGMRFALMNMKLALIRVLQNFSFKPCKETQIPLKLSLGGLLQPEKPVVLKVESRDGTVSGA

Chain of Protein arginine N-methyltransferase 5 (Homo sapiens) (O14744 whole entry): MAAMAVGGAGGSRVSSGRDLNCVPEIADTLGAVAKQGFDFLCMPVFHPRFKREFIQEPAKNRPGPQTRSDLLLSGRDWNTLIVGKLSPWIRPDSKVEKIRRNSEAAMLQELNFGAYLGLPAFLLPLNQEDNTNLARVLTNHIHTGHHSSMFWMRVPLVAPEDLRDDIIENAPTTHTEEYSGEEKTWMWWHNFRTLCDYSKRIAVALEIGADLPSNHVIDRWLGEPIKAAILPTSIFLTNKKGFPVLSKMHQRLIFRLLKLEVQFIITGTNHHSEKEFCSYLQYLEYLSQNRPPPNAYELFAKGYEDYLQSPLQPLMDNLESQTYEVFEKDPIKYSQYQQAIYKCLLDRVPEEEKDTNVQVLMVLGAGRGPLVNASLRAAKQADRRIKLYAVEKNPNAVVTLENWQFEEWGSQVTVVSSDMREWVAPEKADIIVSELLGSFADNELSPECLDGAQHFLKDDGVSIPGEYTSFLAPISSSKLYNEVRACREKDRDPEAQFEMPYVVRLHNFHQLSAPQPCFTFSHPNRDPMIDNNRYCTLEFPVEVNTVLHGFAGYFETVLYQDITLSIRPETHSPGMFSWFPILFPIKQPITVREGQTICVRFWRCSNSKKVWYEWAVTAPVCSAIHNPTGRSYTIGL
Chain of Voltage-gated inwardly rectifying potassium channel KCNH2 (Q12809 whole entry): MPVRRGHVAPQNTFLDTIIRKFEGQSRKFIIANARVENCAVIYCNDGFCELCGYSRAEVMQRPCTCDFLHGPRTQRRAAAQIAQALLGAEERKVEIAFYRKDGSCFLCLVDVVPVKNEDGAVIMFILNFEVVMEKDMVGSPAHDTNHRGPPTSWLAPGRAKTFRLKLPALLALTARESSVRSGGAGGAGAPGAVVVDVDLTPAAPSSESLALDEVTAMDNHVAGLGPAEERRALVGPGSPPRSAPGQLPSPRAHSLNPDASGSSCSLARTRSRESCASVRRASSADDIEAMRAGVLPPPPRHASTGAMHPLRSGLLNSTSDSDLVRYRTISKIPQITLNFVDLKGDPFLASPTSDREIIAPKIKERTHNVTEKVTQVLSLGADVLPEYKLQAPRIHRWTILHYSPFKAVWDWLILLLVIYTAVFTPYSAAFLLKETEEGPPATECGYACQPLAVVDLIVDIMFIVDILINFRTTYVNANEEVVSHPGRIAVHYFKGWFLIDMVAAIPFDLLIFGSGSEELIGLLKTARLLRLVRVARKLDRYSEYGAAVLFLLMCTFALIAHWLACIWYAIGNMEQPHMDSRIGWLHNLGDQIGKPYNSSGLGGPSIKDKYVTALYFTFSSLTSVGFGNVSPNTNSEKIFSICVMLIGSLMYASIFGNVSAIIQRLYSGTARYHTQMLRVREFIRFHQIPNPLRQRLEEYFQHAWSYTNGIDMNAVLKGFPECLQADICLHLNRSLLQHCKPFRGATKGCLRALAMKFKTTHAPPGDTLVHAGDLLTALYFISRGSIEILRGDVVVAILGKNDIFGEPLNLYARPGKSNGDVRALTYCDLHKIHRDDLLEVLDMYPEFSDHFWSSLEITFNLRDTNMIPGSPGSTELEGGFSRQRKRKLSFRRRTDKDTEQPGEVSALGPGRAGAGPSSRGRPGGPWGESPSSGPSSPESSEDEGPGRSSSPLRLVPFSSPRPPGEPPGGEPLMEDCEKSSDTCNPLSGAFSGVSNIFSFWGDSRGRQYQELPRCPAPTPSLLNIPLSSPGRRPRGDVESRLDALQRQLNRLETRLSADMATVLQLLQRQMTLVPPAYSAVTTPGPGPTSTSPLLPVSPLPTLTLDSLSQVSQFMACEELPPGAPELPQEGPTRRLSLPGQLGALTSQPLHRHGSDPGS
Chain of Cytochrome P450 3A4 (P08684 whole entry): as the sequence (P08684 whole entry) above
Chain of PRMT5/MEP50 complex (O14744 whole entry): as the sequence (O14744 whole entry) above
Chain of PRMT5/MEP50 complex (Q9BQA1 whole entry, further chain): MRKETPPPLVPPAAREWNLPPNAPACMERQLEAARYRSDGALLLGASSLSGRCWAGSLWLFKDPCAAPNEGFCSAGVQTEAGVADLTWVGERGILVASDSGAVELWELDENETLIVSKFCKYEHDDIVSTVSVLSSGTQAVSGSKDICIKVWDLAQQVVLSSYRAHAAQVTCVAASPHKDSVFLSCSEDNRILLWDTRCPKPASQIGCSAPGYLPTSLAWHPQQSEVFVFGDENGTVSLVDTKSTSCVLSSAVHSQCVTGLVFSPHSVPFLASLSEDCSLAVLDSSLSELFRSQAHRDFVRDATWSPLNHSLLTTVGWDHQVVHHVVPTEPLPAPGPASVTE
Chain of Cytochrome P450 2C9 (P11712 whole entry): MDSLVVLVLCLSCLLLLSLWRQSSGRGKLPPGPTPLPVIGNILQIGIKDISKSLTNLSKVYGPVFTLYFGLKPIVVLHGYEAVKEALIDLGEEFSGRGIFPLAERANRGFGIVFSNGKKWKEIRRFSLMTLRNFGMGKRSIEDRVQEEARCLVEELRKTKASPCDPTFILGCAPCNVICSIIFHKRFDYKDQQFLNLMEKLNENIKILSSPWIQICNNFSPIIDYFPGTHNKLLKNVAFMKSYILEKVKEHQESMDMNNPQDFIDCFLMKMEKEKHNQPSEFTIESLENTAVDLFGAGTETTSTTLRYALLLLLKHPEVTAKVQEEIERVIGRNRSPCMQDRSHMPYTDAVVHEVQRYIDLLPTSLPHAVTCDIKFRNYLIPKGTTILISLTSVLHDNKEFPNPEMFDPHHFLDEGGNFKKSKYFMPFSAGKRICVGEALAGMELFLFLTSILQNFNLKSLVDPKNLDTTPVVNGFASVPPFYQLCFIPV

Question: Which results are given for Nc1nc2cnc(C(=O)N3CCOC[C@@H]3c3ccc(C(F)(F)F)cc3)cc2c2c1COC2?
Answer: IC50 (HCT-116 [1]): 102 nM; IC50 (HCT-116 [2]): 4330 nM; IC50 (BXPC-3 [3]): 218 nM; IC50 (DOHH-2): 51 nM; IC50 [4]: > 30000 nM; solubility [5]: 335 µM (≈ 149 µg/mL); IC50 (Cytochrome P450 3A4): 124000 nM; IC50 (Cytochrome P450 2C9): 59000 nM; hepatocyte CLint [6]: 6 µL/min/1e6 cells; hepatocyte CLint [7]: 5 µL/min/1e6 cells; fraction unbound [8]: 0.11; clearance [9]: 28.3 mL/min/kg; Occ [10]: 70%; Selectivity ratio [11]: 60; Activity [12]: Non-toxic; Kp uu [13]: 0.24; Kp uu [14]: 0.15; Kp uu [15]: 0.12; inhibition [16]: 84%; inhibition [17]: 12%; inhibition [18]: 79%; Activity (HCT-116 [19]): inactive; inhibition in vivo at 3 mg/kg (HCT-116 [20]): 54%; inhibition in vivo at 10 mg/kg (HCT-116 [21]): 55%; inhibition in vivo at 10 mg/kg (BXPC-3 [22]): 19%; inhibition in vivo at 30 mg/kg (BXPC-3 [23]): 61%; inhibition in vivo at 100 mg/kg (BXPC-3 [24]): 96%; Drug uptake [25]: Active; inhibition in vivo at 10 mg/kg [26]: 42%; inhibition in vivo at 30 mg/kg [27]: 57%; inhibition [28]: 68%; inhibition [29]: 77%; Activity [30]: Non-toxic; Ki (PRMT5/MEP50 complex): < 0.1 nM; bioavailability (in vivo): 60%; inhibition at 30 min, 10 µM (CYP3A4): < 20%
